From patent publication US6903099B2, “Condensed pyrazindione derivatives” (Lilly Icos LLC, priority 2000, dated 2005)

Experiments:
[1] = molecular target: T1, recombinant human PDE5 (Homo sapiens, UniProt O76074); experiment: Inhibitory effect on cGMP-PDE (PDE5 IC50 determination); assay type: biochemical; details: in vitro, read-out: IC50 versus PDE5
T1 construct: host or cells: Saccharomyces cerevisiae strain BJ2-54 (ATCC 74465)
Method: The compounds of structural formula (I) were tested for an ability to inhibit PDE5. The ability of a compound to inhibit PDE5 activity is related to the IC50 value for the compound, i.e., the concentration of inhibitor required for 50% inhibition of enzyme activity. The IC50 value for compounds of structural formula (I) were determined using recombinant human PDE5.
Phosphodiesterase activity of the preparations was determined as follows. PDE assays utilizing a charcoal separation technique were performed essentially as described in Loughney et al. (1996). In this assay, PDE activity converts [32P]cAMP or [32P]cGMP to the corresponding [32P]5′-AMP or [32P]5′-GMP in proportion to the amount of PDE activity present. The [32P]5′-AMP or [32P]5′-GMP then was quantitatively converted to free [32P]phosphate and unlabeled adenosine or guanosine by the action of snake venom 5′-nucleotidase. […] The assay was performed at 30° C. in a 100 μL reaction mixture containing (final concentrations) 40 mM Tris HCl (pH 8.0), 1 μM ZnSO4, 5 mM MgCl2, and 0.1 mg/mL bovine serum albumin (BSA). PDE enzyme was present in quantities that yield <30% total hydrolysis of substrate (linear assay conditions). The assay was initiated by addition of substrate ([…] [32P]cAMP or cGMP), and the mixture was incubated for 12 minutes. Seventy-five (75) μg of Crotalus atrox venom then was added, and the incubation was continued for 3 minutes (15 minutes total). The reaction was stopped by addition of 200 μL of activated charcoal (25 mg/mL suspension in 0.1 M NaH2PO4, pH 4). After centrifugation (750×g for 3 minutes) to sediment the charcoal, a sample of the supernatant was taken for radioactivity determination in a scintillation counter and the PDE activity was calculated.
cGMP-PDE activity of compounds of the present invention was measured using a one-step assay adapted from Wells et al., Biochim. Biophys. Acta, 384, 430 (1975). The reaction medium contained 50 mM Tris-HCl, pH 7.5, 5 mM magnesium acetate, 250 μg/ml 5′-Nucleotidase, 1 mM EGTA, and 0.15 μM 8-[H^3]-cGMP. Unless otherwise indicated, the enzyme used was a human recombinant PDE5 (ICOS Corp., Bothell, Wash.).
Compounds of the invention were dissolved in DMSO finally present at 2% in the assay.

IC50 [1] [nM] | melting point [°C] | SMILES
2.3 | 262 to 276 | CN1CC(=O)N2[C@H](c3ccc4c(c3)OCO4)c3[nH]c4ncccc4c3C[C@@H]2C1=O (racemic) [Example 1, (+/−,cis)-10-Benzo[1,3]dioxol-5-yl-7-methyl-5,5a,7,8,10,11-hexahydro-1,7,9a,11-tetraazabeno[β]fluorene-6,9-dione]
555 | 245 to 266 | CN1CC(=O)N2[C@H](c3ccc4c(c3)OCO4)c3sc4ccccc4c3C[C@@H]2C1=O (racemic) [Example 4, (+/−,cis)-10-Benzo[1,3]dioxol-5-yl-7-methyl-5,7,8,10-tetrahydro-5aH-11-thia-7,9a-diazabenzo[β]fluorene-6,9-dione]
338 | 274 to 277 | CN1CC(=O)N2[C@H](c3ccc4c(c3)OCO4)c3c([nH]c4ccccc34)C[C@@H]2C1=O [Example 5(a), (5R,9aR)-5-Benzo(1,3)dioxol-5-yl-8-methyl-5,7,8,9a,10,11-hexahydro-5a,8,11-triaza-benzo[b]fluorane-8,9-dione]
125 | 274 to 277 | CN1CC(=O)N2[C@@H](c3ccc4c(c3)OCO4)c3c([nH]c4ccccc34)C[C@@H]2C1=O [Example 5(b), (5S,9aR)-5-Benzo[1,3]dioxol-5-yl-8-methyl-5,7,8,9a,10,11-hexahydro-5a,8,11-triaza-benzo[b]fluorene-8,9-dione]
